Data as given in patent US9278978B2, “6-Alkynyl Pyridine” (Boehringer Ingelheim International GmbH, priority 2013, dated 2016).

Each compound was assayed against cIAP1 BIR3 (Homo sapiens (Human), UniProt Q13490) (assay: cIAP1 BIR3 binding assay (DELFIA), BIR3 domain-SMAC peptide interaction). Conditions: not given.
Method: XIAP BIR3 and cIAP1 BIR3 Binding Assays (DELFIA)
Peptide […]-Lys(Biotin), representing the N-terminus of mature human SMAC(SMAC peptide), was used as interaction partner in the protein-peptide interaction assay.
BIR3 domains (10 nM) were incubated with SMAC peptide (10 nM) in assay buffer (50 mM Tris, 120 mM NaCl, 0.1% BSA, 1 mM DTT, 0.05% TritonX100) for one hour at room temperature in the presence of inhibitory compounds. The assay mixture was transferred to a strepatvidin coated plate and incubated for one hour at room temperature to allow binding of the biotinylated peptide and associated BIR3 domains to the plate. After several washing steps Eu labeled anti-GST antibody (e.g. Perkin Elmer DELFIA Eu-N1-antiGST AD0250) was added to detect BIR3 domain-SMAC peptide interactions according to Perkin Elmer's instructions. […] Time resolved Europium fluorescence was measured in a Wallac Victor using Standard assay settings.
DELFIA assay results were plotted against compound concentrations and Software GraphPad Prizm was used to calculate half maximal inhibitory concentrations (IC50 values).

| Structure (SMILES) | IC50 [nM] |
| --- | --- |
| CNC(C)C(=O)Nc1cc(-c2ncnc3ncn(C)c23)cc(C#Cc2ccc3c(C)nccc3c2)n1 (stereo not shown) [Example 6, N-[4-(7-methyl-7H-purin-6-yl)-6-[2-(1-methylisoquinolin-6-yl)ethynyl]pyridin-2-yl]-2-(methylamino)propanamide] | 1 |

Same assay, conditions: BIR3 domain 10 nM, SMAC peptide 10 nM; (S)-isomer (examples 1-34, 38-43) or racemate (examples 35-37); read-out: cIAP1 BIR-3 IC50

| Structure (SMILES) | IC50 [nM] |
| --- | --- |
| CNC(C)C(=O)Nc1cc(-c2cnc3cccc(C)n23)cc(C#Cc2ccc3c(C)nccc3c2)n1 (stereo not shown) [Example 13, 2-(methylamino)-N-(4-{5-methylimidazo[1,2-a]pyridin-3-yl}-6-[2-(1-methylisoquinolin-6-yl)ethynyl]pyridin-2-yl)propanamide] | 1 |
| CNC(C)C(=O)Nc1cc(-c2ncnc3c(C)nn(C)c23)cc(C#Cc2ccn3c(C)ncc3c2)n1 (stereo not shown) [Example 4, N-(4-{1,3-dimethyl-1H-pyrazolo[4,3-d]pyrimidin-7-yl}-6-(2-{3-methylimidazo[1,5-a]pyridin-7-yl}ethynyl)pyridin-2-yl)-2-(methylamino)propanamide] | 1 |
| CNC(C)C(=O)Nc1cc(-c2c(C)nc(C)c3c(=O)n(C)n(C)c23)cc(C#Cc2ccc3c(C)nccc3c2)n1 (stereo not shown) [Example 14, 2-(methylamino)-N-{6-[2-(1-methylisoquinolin-6-yl)ethynyl]-4-{1,2,4,6-tetramethyl-3-oxo-1H,2H,3H-pyrazolo[4,3-c]pyridin-7-yl}pyridin-2-yl}propanamide] | 1 |
| CNC(C)C(=O)Nc1cc(-c2ccc(C(F)(F)F)nc2)cc(C#Cc2ccccc2)n1 (stereo not shown) [Example 30, 2-(methylamino)-N-[6-(2-phenylethynyl)-4-[6-(trifluoromethyl)pyridin-3-yl]pyridin-2-yl]propanamide] | 352 |
| CCNC(CC)C(=O)Nc1cc(-c2ncnc3c(C)nn(C)c23)cc(C#Cc2ccc3c(C)nccc3c2)n1 (racemic) [Example 37, N-(4-{1,3-dimethyl-1H-pyrazolo[4,3-d]pyrimidin-7-yl}-6-[2-(1-methylisoquinolin-6-yl)ethynyl]pyridin-2-yl)-2-(ethylamino)butanamide] | 6 |
| CNC(C)C(=O)Nc1cc(-c2c(OC)ccc3nc(C)ccc23)cc(C#Cc2ccccc2)n1 (stereo not shown) [Example 5, N-[4-(6-methoxy-2-methylquinolin-5-yl)-6-(2-phenylethynyl)pyridin-2-yl]-2-(methylamino)propanamide] | 59 |
| CNC(C)C(=O)Nc1cc(-c2cccc3cnn(C)c23)c(OC)c(C#Cc2ccccc2)n1 (stereo not shown) [Example 26, N-[5-methoxy-4-(1-methyl-1H-indazol-7-yl)-6-(2-phenylethynyl)pyridin-2-yl]-2-(methylamino)propanamide] | 12 |
| CNC(C)C(=O)Nc1cc(-c2ncnc3c(C)nn(C)c23)cc(C#Cc2cc(C)nc3c(F)cccc23)n1 (stereo not shown) [Example 3, N-(4-{1,3-dimethyl-1H-pyrazolo[4,3-d]pyrimidin-7-yl}-6-[2-(8-fluoro-2-methylquinolin-4-yl)ethynyl]pyridin-2-yl)-2-(methylamino)propanamide] | 1 |
| CNC(C)C(=O)Nc1cc(-c2nc(C)nc3c(C)nn(C)c23)cc(C#Cc2ccc3c(ccc(=O)n3C)c2)n1 (stereo not shown) [Example 15, N-{6-[2-(1-methyl-2-oxo-1,2-dihydroquinolin-6-yl)ethynyl]-4-{trimethyl-1H-pyrazolo[4,3-d]pyrimidin-7-yl}pyridin-2-yl}-2-(methylamino)propanamide] | 1 |
| CNC(C)C(=O)Nc1cc(-c2cccc3ncccc23)c(OC)c(C#Cc2ccccc2)n1 (stereo not shown) [Example 27, N-[5-methoxy-6-(2-phenylethynyl)-4-(quinolin-5-yl)pyridin-2-yl]-2-(methyl-amino)propanamide] | 136 |
| CNC(C)C(=O)Nc1cc(-c2ncnc3c(C)nn(C)c23)cc(C#Cc2cc(F)c3ncccc3c2)n1 (stereo not shown) [Example 42, N-(4-{1,3-dimethyl-1H-pyrazolo[4,3-d]pyrimidin-7-yl}-6-[2-(8-fluoroquinolin-6-yl)ethynyl]pyridin-2-yl)-2-(methylamino)propanamide] | 1 |
| CNC(C)C(=O)Nc1cc(-c2cncc(F)c2)cc(C#Cc2ccccc2)n1 (stereo not shown) [Example 29, N-[4-(5-fluoropyridin-3-yl)-6-(2-phenylethynyl)pyridin-2-yl]-2-(methylamino)propanamide] | 127 |
